The test system of assay [1] is RBL-2H3. Briefly: Cytotoxicity against rat RBL2H3 after 24 hrs by MTT assay. The assay is classed as functional, cell-based. Conditions: RBL-2H3, 24 h. (Tetrazolium assays rely on reduction of a dye to a coloured formazan, in cell work by metabolically active cells.)
Assay [2] deals with C6. As to the kind of experiment: Cytotoxicity against rat C6 after 24 hrs by MTT assay. Format: functional, cell-based.

The source made the active and inactive calls. The calls are words filed in the database; no cut-off is given here.

Turning to `CC(C)CC(=O)C[C@](C)(O)[C@H]1CC[C@H]2[C@@H]3C[C@H](O[C@@H]4O[C@H](C)[C@@H](O)[C@H](O[C@@H]5O[C@H](CO)[C@@H](O[C@@H]6O[C@H](C)[C@@H](O)[C@H](O)[C@H]6O[C@@H]6O[C@H](C)[C@H](O)[C@H](O)[C@H]6O)[C@H](O)[C@H]5O[C@@H]5O[C@H](C)[C@@H](O)[C@H](O)[C@H]5O)[C@H]4O)[C@H]4C[C@@H](OS(=O)(=O)[O-])CC[C@]4(C)C3=CC[C@@]21C.[Na+]` [LUIDIAQUINOSIDE], in assay [1], the IC50 (usually the concentration at which inhibition is half-maximal) stood at 31.3 µg/mL. Further, the result in assay [2] was inactive.
On the same counts, the results for `CC(C)CC(=O)C[C@](C)(O)[C@H]1CC[C@H]2[C@@H]3C[C@H](O[C@@H]4O[C@H](C)[C@@H](O)[C@H](O[C@@H]5OC[C@@H](O[C@@H]6O[C@H](CO)[C@H](O)[C@H](O)[C@H]6O[C@@H]6O[C@H](C)[C@H](O)[C@H](O[C@@H]7O[C@@H](CO)[C@H](O)[C@H]7O)[C@H]6O)[C@H](O)[C@H]5O[C@@H]5O[C@H](C)[C@@H](O)[C@H](O)[C@H]5O)[C@H]4O)[C@H]4C[C@@H](OS(=O)(=O)[O-])CC[C@]4(C)C3=CC[C@@]21C.[Na+]` [PSILASTEROSIDE] are 5.4 µg/mL and “inactive”.

The values above are taken from ChEMBL document CHEMBL1159360, “Bioactive asterosaponins from the starfish Luidia quinaria and Psilaster cassiope. Isolation and structure characterization by two-dimensional NMR spectroscopy” (J Nat Prod, 2003).
